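All cell lines were grown in 96-well plates and treated with compound for 48 hours. GI50: concentration for 50% inhibition of growth.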 Calls of active or inactive are those of the source. No stated cut-off is given here; in the data, active = GI50 up to about 1.1 µM and inactive = higher.
What was measured:
Experiment in all cases: inhibition of tumour cell growth, NCI panel, 48 h
SNB-75 = tested on: SNB-75
RXF 393 = tested on: RXF 393
COLO 205 = tested on: COLO 205
K562 = tested on: K562
MDA-N = tested on: MDA-N
BT-549 = tested on: BT-549
RPMI-8226 = tested on: RPMI-8226
MDA-MB-231 = tested on: MDA-MB-231
KM12 = tested on: KM12
MOLT-4 = tested on: MOLT-4
SF-539 = tested on: SF-539
OVCAR-4 = tested on: OVCAR-4
NCI-H226 = tested on: NCI-H226
LOX IMVI = tested on: LOX IMVI
ACHN = tested on: ACHN
HT-29 = tested on: HT-29
SNB-19 = tested on: SNB-19
UO-31 = tested on: UO-31
HCC 2998 = tested on: HCC 2998
SF-268 = tested on: SF-268
SN12C = tested on: SN12C
MCF7 = tested on: MCF7
HOP-62 = tested on: HOP-62
U-251 = tested on: U-251
TK-10 = tested on: TK-10
SK-OV-3 = tested on: SK-OV-3
HOP-92 = tested on: HOP-92
IGROV-1 = tested on: IGROV-1
UACC-62 = tested on: UACC-62
MDA-MB-435 = tested on: MDA-MB-435
SK-MEL-5 = tested on: SK-MEL-5
HCT-15 = tested on: HCT-15
SW-620 = tested on: SW-620
OVCAR-8 = tested on: OVCAR-8
NCI-H522 = tested on: NCI-H522
M14 = tested on: M14
A498 = tested on: A498
PC-3 = tested on: PC-3
SF-295 = tested on: SF-295
DU-145 = tested on: DU-145
SK-MEL-2 = tested on: SK-MEL-2
786-0 = tested on: 786-0
Hs-578T = tested on: Hs-578T
EKVX = tested on: EKVX
A549 = tested on: A549
NCI-H460 = tested on: NCI-H460
NCI/ADR-RES = tested on: NCI/ADR-RES
CCRF-CEM = tested on: CCRF-CEM
T47D = tested on: T47D
UACC-257 = tested on: UACC-257
NCI-H23 = tested on: NCI-H23
OVCAR-5 = tested on: OVCAR-5
HL-60 = tested on: HL-60
CAKI-1 = tested on: CAKI-1
HCT-116 = tested on: HCT-116
SR = tested on: SR
OVCAR-3 = tested on: OVCAR-3
Malme-3M = tested on: Malme-3M
SK-MEL-28 = tested on: SK-MEL-28

Measured: GI50

COc1cc(/C=C2\NC(=O)N(/C=C3\C(=O)Oc4ccccc4C3=O)C2=O)ccc1O
inactive: SNB-75 13.8 µM | RXF 393 25.1 µM | COLO 205 78.2 µM | K562 > 100 µM | MDA-N > 100 µM | BT-549 43 µM | RPMI-8226 > 100 µM | MDA-MB-231 35.2 µM | KM12 54.1 µM | MOLT-4 36.2 µM | SF-539 63.1 µM | OVCAR-4 91.8 µM | NCI-H226 > 100 µM | LOX IMVI 49.5 µM | ACHN > 100 µM | HT-29 54.5 µM | SNB-19 37.5 µM | UO-31 44.4 µM | HCC 2998 41.2 µM | SF-268 57.1 µM | SN12C 54.3 µM | MCF7 > 100 µM | HOP-62 61.2 µM | U-251 76.6 µM | TK-10 > 100 µM | SK-OV-3 51.1 µM | HOP-92 > 100 µM | IGROV-1 62.7 µM | UACC-62 49 µM | MDA-MB-435 > 100 µM | SK-MEL-5 41 µM | SW-620 > 100 µM | OVCAR-8 56 µM | NCI-H522 29.2 µM | M14 99.3 µM | A498 42.1 µM | PC-3 64 µM | SF-295 > 100 µM | DU-145 87.1 µM | SK-MEL-2 > 100 µM | 786-0 88.7 µM | Hs-578T 33.6 µM | EKVX > 100 µM | A549 > 100 µM | NCI-H460 > 100 µM | NCI/ADR-RES > 100 µM | CCRF-CEM 32.7 µM | T47D > 100 µM | UACC-257 > 100 µM | NCI-H23 80.2 µM | OVCAR-5 > 100 µM | HL-60 20.7 µM | CAKI-1 59.8 µM | HCT-116 > 100 µM
39.3 µM: HCT-15

CC1CCc2sc3nc(S)n(-c4ccccc4)c(=O)c3c2C1 (stereo not given)
> 100 µM: HCT-15
inactive: SNB-75 29.3 µM | RXF 393 35.8 µM | COLO 205 > 100 µM | K562 > 100 µM | MDA-N > 100 µM | BT-549 > 100 µM | RPMI-8226 53 µM | MDA-MB-231 53.8 µM | KM12 75.2 µM | MOLT-4 41.1 µM | OVCAR-4 39.7 µM | NCI-H226 48.9 µM | LOX IMVI 47.2 µM | ACHN 62.5 µM | HT-29 39.6 µM | SNB-19 45.5 µM | UO-31 15.1 µM | HCC 2998 21.6 µM | SF-268 85.7 µM | SN12C > 100 µM | MCF7 39 µM | HOP-62 36.3 µM | U-251 49.2 µM | TK-10 57.8 µM | SK-OV-3 55.1 µM | SR 33.4 µM | HOP-92 37.7 µM | IGROV-1 47.4 µM | UACC-62 31.3 µM | MDA-MB-435 > 100 µM | SK-MEL-5 44.1 µM | SW-620 > 100 µM | OVCAR-3 39.6 µM | OVCAR-8 > 100 µM | NCI-H522 > 100 µM | M14 > 100 µM | Malme-3M 66.8 µM | PC-3 33.3 µM | SF-295 27.7 µM | DU-145 63.4 µM | SK-MEL-2 27.7 µM | SK-MEL-28 93.1 µM | 786-0 62.7 µM | Hs-578T 61.1 µM | EKVX > 100 µM | A549 81.8 µM | NCI-H460 34.4 µM | NCI/ADR-RES > 100 µM | T47D 33.4 µM | UACC-257 63.8 µM | NCI-H23 92.7 µM | OVCAR-5 86.9 µM | CAKI-1 > 100 µM | HCT-116 > 100 µM

Source: ChEMBL document CHEMBL1201862, “PubChem BioAssay data set” (2004)
